# Measured values reported in patent US6967034B2, “Herbal-based composition for treating acute and chronic myeloid leukemia” (Council of Scientific and Industrial Research, priority 2002, dated 2005).
# Key:
# Assay type in all cases: cell-based, human
# [1] = tested on: CD33+ myeloid leukemia cells; experiment: Incubation of PBMC of CD33+ myeloid leukemia patients, viability count and flow cytometry; conditions: purified compound, varied concentrations, 48 h
# Procedure: Preparation of peripheral blood mononuclear cells (PBMC) from CD33+ myeloid leukemia patients ex vivo blood.
# (§1) Whole blood (10 ml) was drawn from a previously diagnosed CD33+ myeloid leukemic patient and mononuclear cells were separated by Ficoll/hypaqal density gradient centrifugation.
# Incubation of PBMC of myeloid leukemia patients with crude Piper betel extract. PBMC (2×10^6/ml) of myeloid leukemia patients were incubated with Piper betel extract (10.0 mg/ml) for 48 hours and then washed and counted for viability.
# Incubation of PBMC of myeloid leukemia patients with fraction E in vitro. PBMC (2×10^6/ml) of myeloid leukemia patients were incubated with varied concentrations of fraction E for 48 hours. Cells were then washed and counted for viability.
# (§2) Incubation of PBMC of myeloid leukemia patients with purified compound 3-O-p-coumaryl quinic acid in vitro. PBMC (2×10^6/ml) of myeloid leukemia patients were incubated with varied concentrations of purified compound for 48 h. Cells were then washed, and counted for viability.
# Flow cytometry of myeloid leukemia cells. Myeloid leukemia cells before and after in vitro incubation with crude Piper betel extract, purified fraction E or purified 3-O-p-coumaryl quinic acid were marked with anti-CD33-FITC and anti-CD13-PE monoclonal antibodies. Cells were then analysed in a flow cytometer (FACS Calibur, Bection Dickinson, USA)
# AML cells = experiment: Growth inhibition of AML cells in vitro; conditions: 48 h
# Procedure: as §1, §2
# Incubation of myeloid leukemic cells with fractions having retention time 3.60 (fraction-1) and 24.00 min (fraction 9). PBMC of myeloid leukemic patients were incubated with above-mentioned fractions, alone or in combination of the two for 48 HRs. Cells were then washed and counted for viability.
# CML cells = experiment: Growth inhibition of CML cells in vitro; conditions: 48 h
# Procedure: as §1, §2
structure (smiles),measurement,setting,value
O=C(C=Cc1ccc(O)cc1)OC1CC(O)(C(=O)O)CC(O)C1O (stereo not drawn) [3-O-p-coumaryl quinic acid],Destruction of PBMC of CD33+ myeloid leukemia patients (both AML and CML),[1],destroyed
same,Percent inhibition of growth,AML cells; 100 μg/ml,53.37%
same,Percent inhibition of growth,AML cells; 600 μg/ml,100.00%
same,% Inhibition (percent inhibition of growth),"AML cells; single fraction, dose 100 μg/ml",54.00%
same,Percent inhibition of growth,CML cells; 100 μg/ml,2.53%
same,Percent inhibition of growth,CML cells; 600 μg/ml,79.50%
